These results are taken from the NIST ThermoML archive (doi:10.1021/je060033f).

± gives the expanded uncertainty stated by the source.

A short description of the data set: activity coefficient (dimensionless); of the first substance listed, at infinite dilution; xn = mol fraction of the nth substance listed. The following applies: 323.15 K; 101 kPa; Liquid; Chromatography; x1 = 0.
Turning to `Cc1cccc(C)c1` [1,3-dimethylbenzene] + C=CC[n+]1ccn(CCCCCCCCCC)c1.[Br-], the activity coefficient was 2.73 ± 0.19.
Consider `CCCCCCCCC` [nonane] + CCCCCCCC[n+]1ccn(CCCB(O)O)c1.[Br-], for which the activity coefficient was 26.2 ± 1.8.
Next, `CCCC(C)=O` [pentan-2-one] + C=CC[n+]1ccn(CCCCCCCCCC)c1.[Br-]: 1.78 ± 0.12; `c1ccsc1` [thiophene] + CCCCCCCC[n+]1ccn(CCCB(O)O)c1.[Br-]: 1.2 ± 0.08; `CO` [methanol] + C=CC[n+]1ccn(CCCCCCCC)c1.[Br-]: 0.17 ± 0.03.
With `CC(C)O` [propan-2-ol] + C=CCn1cc[n+](C)c1.[Br-] the figure was 0.69 ± 0.05; with `CCCCCCCC` [octane] + C=CC[n+]1ccn(CCCCCCCC)c1.[Br-], 14.9 ± 1.
With `C1COCCO1` [1,4-dioxane] + CCCCCCCCCCCC[n+]1ccn(CCCB(O)O)c1.[Br-] the figure was 1.32 ± 0.09.
As to `CCCCCCCCC` [nonane] + C[n+]1ccn(CCCB(O)O)c1.[Br-], the activity coefficient was 83.2 ± 5.7.
Next, `CCOCC` [diethyl ether] + C=CCn1cc[n+](C)c1.[Br-]: 11.4 ± 0.78.
For the molecule `CCCCCCC` [heptane] + C=CC[n+]1ccn(CCCCCCCCCC)c1.[Br-], the activity coefficient was 11.1 ± 0.76.
With `CO` [methanol] + C[n+]1ccn(CCCB(O)O)c1.[Br-] the figure was 0.05; with `CC(C)O` [propan-2-ol] + C=CC[n+]1ccn(CCCCCCCCCC)c1.[Br-], 0.35 ± 0.03.
Regarding `CCC[N+](=O)[O-]` [1-nitropropane] + CCCCCCCCCCCC[n+]1ccn(CCCB(O)O)c1.[Br-], the activity coefficient amounted to 1.51 ± 0.1.
Turning to `C#CCCCCC` [1-heptyne] + C=CC[n+]1ccn(CCCCCCCCCC)c1.[Br-], the activity coefficient came to 2.58 ± 0.18.
Turning to `ClC(Cl)Cl` [trichloromethane] + CCCCCCCCCCCC[n+]1ccn(CCCB(O)O)c1.[Br-], the activity coefficient was found to be 0.19 ± 0.03.
Next, `CCC(C)=O` [butanone] + C=CCn1cc[n+](C)c1.[Br-]: 2.68 ± 0.18.
`C1CCCCC1` [cyclohexane] + CCCCCCCCCCCC[n+]1ccn(CCCB(O)O)c1.[Br-]: the activity coefficient was determined as 3.25 ± 0.22.
With `C=CCCCC` [hex-1-ene] + C=CC[n+]1ccn(CCCCCCCC)c1.[Br-], the activity coefficient is 5.93 ± 0.4.
As to `CCCCCCCC` [octane] + C=CCn1cc[n+](C)c1.[Br-], the activity coefficient was determined as 63 ± 4.3.
Next, `CC#N` [acetonitrile] + C=CC[n+]1ccn(CCCCCCCCCCCC)c1.[Br-]: 0.86 ± 0.06; `Cc1cccc(C)c1` [1,3-dimethylbenzene] + CCCCCCCCCC[n+]1ccn(CCCB(O)O)c1.[Br-]: 2.11 ± 0.14.
As for `c1ccccc1` [benzene] + C=CCn1cc[n+](C)c1.[Br-], the activity coefficient turned out to be 3.6 ± 0.25.
Take `CO` [methanol] + C=CCn1cc[n+](C)c1.[Br-]: the activity coefficient was 0.18 ± 0.03.
With `CCCC(C)=O` [pentan-2-one] + C[n+]1ccn(CCCB(O)O)c1.[Br-] the figure was 24.2 ± 1.7.
With `C#CCCCCC` [1-heptyne] + C[n+]1ccn(CCCB(O)O)c1.[Br-], the activity coefficient turned out to be 42.9 ± 2.9.
Next, `CCO` [ethanol] + C=CC[n+]1ccn(CCCCCCCCCCCC)c1.[Br-]: 0.23 ± 0.03; `CCCCCC` [hexane] + CCCCCCCCCCCC[n+]1ccn(CCCB(O)O)c1.[Br-]: 4.65 ± 0.32.
On to `Cc1ccccc1` [toluene] + CCCCCCCC[n+]1ccn(CCCB(O)O)c1.[Br-], for which the activity coefficient was 2.41 ± 0.16.
With `CCCC(C)=O` [pentan-2-one] + C=CC[n+]1ccn(CCCCCCCCCCCC)c1.[Br-] the figure was 1.62 ± 0.11; with `c1ccccc1` [benzene] + CCCCCCCC[n+]1ccn(CCCB(O)O)c1.[Br-], 1.84 ± 0.12; with `C#CCCCCC` [1-heptyne] + C=CC[n+]1ccn(CCCCCCCC)c1.[Br-], 2.56 ± 0.17.
On to `ClCCl` [dichloromethane] + C=CC[n+]1ccn(CCCCCCCCCC)c1.[Br-], for which the activity coefficient was 0.27 ± 0.03.
`CCCO` [propan-1-ol] + C=CC[n+]1ccn(CCCCCCCCCC)c1.[Br-]: the activity coefficient was 0.28 ± 0.03.
`c1ccccc1` [benzene] + C=CC[n+]1ccn(CCCCCCCCCC)c1.[Br-]: the activity coefficient was determined as 1.39 ± 0.09.
With `C1CCCCC1` [cyclohexane] + CCCCCCCCCC[n+]1ccn(CCCB(O)O)c1.[Br-] the figure was 3.89 ± 0.26.
`Cc1ccccc1` [toluene] + C[n+]1ccn(CCCB(O)O)c1.[Br-]: the activity coefficient stood at 38.8 ± 2.6.
Next, `CCC[N+](=O)[O-]` [1-nitropropane] + C[n+]1ccn(CCCB(O)O)c1.[Br-]: 15.8 ± 1.1.
In the case of `CCCC(C)=O` [pentan-2-one] + C=CC[n+]1ccn(CCCCCCCC)c1.[Br-], the activity coefficient came out at 1.93 ± 0.13.
With `CC#N` [acetonitrile] + CCCCCCCCCCCC[n+]1ccn(CCCB(O)O)c1.[Br-], the activity coefficient came to 1.16 ± 0.07.
With `CCOCC` [diethyl ether] + C=CC[n+]1ccn(CCCCCCCCCC)c1.[Br-], the activity coefficient is 3.54 ± 0.24.
Next, `CCCCCCCCC` [nonane] + C=CC[n+]1ccn(CCCCCCCCCC)c1.[Br-]: 16.9 ± 1.2.
With `CCCCCC` [hexane] + C=CC[n+]1ccn(CCCCCCCC)c1.[Br-] the figure was 8.9 ± 0.61; with `CCCC(C)=O` [pentan-2-one] + CCCCCCCC[n+]1ccn(CCCB(O)O)c1.[Br-], 2.32 ± 0.16.
Turning to `C1COCCO1` [1,4-dioxane] + C=CC[n+]1ccn(CCCCCCCC)c1.[Br-], the activity coefficient is 1.52 ± 0.1.
With `CCC(C)=O` [butanone] + C=CC[n+]1ccn(CCCCCCCCCC)c1.[Br-] the figure was 1.48 ± 0.1; with `CCCCCCCC` [octane] + C=CC[n+]1ccn(CCCCCCCCCCCC)c1.[Br-], 6.37 ± 0.43; with `Cc1ccccc1C` [1,2-dimethylbenzene] + C=CC[n+]1ccn(CCCCCCCCCCCC)c1.[Br-], 1.66 ± 0.11.
Next, `C#CCCCC` [1-hexyne] + CCCCCCCCCC[n+]1ccn(CCCB(O)O)c1.[Br-]: 1.77 ± 0.12; `CCc1ccccc1` [ethylbenzene] + C=CCn1cc[n+](C)c1.[Br-]: 11.1 ± 0.76.
Next, `CCO` [ethanol] + C=CC[n+]1ccn(CCCCCCCC)c1.[Br-]: 0.27 ± 0.03; `ClC(Cl)(Cl)Cl` [tetrachloromethane] + CCCCCCCCCCCC[n+]1ccn(CCCB(O)O)c1.[Br-]: 0.9 ± 0.06; `CCC[N+](=O)[O-]` [1-nitropropane] + CCCCCCCCCC[n+]1ccn(CCCB(O)O)c1.[Br-]: 1.19 ± 0.08.
In the case of `C1CCCCC1` [cyclohexane] + C=CC[n+]1ccn(CCCCCCCCCC)c1.[Br-], the activity coefficient came to 5.64 ± 0.38.
Next, `C1COCCO1` [1,4-dioxane] + C=CC[n+]1ccn(CCCCCCCCCC)c1.[Br-]: 1.39 ± 0.09; `Cc1ccccc1C` [1,2-dimethylbenzene] + CCCCCCCCCCCC[n+]1ccn(CCCB(O)O)c1.[Br-]: 1.78 ± 0.12.
`C1COCCO1` [1,4-dioxane] + CCCCCCCCCC[n+]1ccn(CCCB(O)O)c1.[Br-]: the activity coefficient was found to be 1.38 ± 0.09.
Next, `CCCCCCCCC` [nonane] + C=CCn1cc[n+](C)c1.[Br-]: 65.6 ± 4.5; `CCCCCCC` [heptane] + C[n+]1ccn(CCCB(O)O)c1.[Br-]: 77.6 ± 5.3; `CC#N` [acetonitrile] + C=CC[n+]1ccn(CCCCCCCCCC)c1.[Br-]: 0.89 ± 0.06.
With `C#CCCCC` [1-hexyne] + C=CC[n+]1ccn(CCCCCCCCCC)c1.[Br-] the figure was 2.02 ± 0.14; with `CCc1ccccc1` [ethylbenzene] + C=CC[n+]1ccn(CCCCCCCCCCCC)c1.[Br-], 1.77 ± 0.12; with `CCCCCCC` [heptane] + CCCCCCCCCC[n+]1ccn(CCCB(O)O)c1.[Br-], 7.04 ± 0.48.
Next, `CCc1ccccc1` [ethylbenzene] + C[n+]1ccn(CCCB(O)O)c1.[Br-]: 45.1 ± 3.1; `ClCCl` [dichloromethane] + C=CC[n+]1ccn(CCCCCCCCCCCC)c1.[Br-]: 0.25 ± 0.03.
Take `C1CCCCC1` [cyclohexane] + C=CCn1cc[n+](C)c1.[Br-]: the activity coefficient was determined as 15.7 ± 1.1.
With `CO` [methanol] + CCCCCCCCCCCC[n+]1ccn(CCCB(O)O)c1.[Br-] the figure was 0.04; with `Cc1ccccc1` [toluene] + C=CC[n+]1ccn(CCCCCCCCCC)c1.[Br-], 1.85 ± 0.12; with `CC#N` [acetonitrile] + C=CCn1cc[n+](C)c1.[Br-], 1.04 ± 0.07.
Turning to `ClC(Cl)Cl` [trichloromethane] + C=CC[n+]1ccn(CCCCCCCCCCCC)c1.[Br-], the activity coefficient is 0.12 ± 0.03.
On to `CCCCCC` [hexane] + C=CCn1cc[n+](C)c1.[Br-], for which the activity coefficient worked out at 25.1 ± 1.7.
Regarding `c1ccccc1` [benzene] + CCCCCCCCCCCC[n+]1ccn(CCCB(O)O)c1.[Br-], the activity coefficient is 1.21 ± 0.08.
As for `c1ccsc1` [thiophene] + C=CC[n+]1ccn(CCCCCCCC)c1.[Br-], the activity coefficient worked out at 0.93 ± 0.06.
For the molecule `CCc1ccccc1` [ethylbenzene] + C=CC[n+]1ccn(CCCCCCCCCC)c1.[Br-], the activity coefficient stood at 2.54 ± 0.17.
For `CCCC(C)=O` [pentan-2-one] + CCCCCCCCCCCC[n+]1ccn(CCCB(O)O)c1.[Br-], the activity coefficient is 1.63 ± 0.11.
With `CCCO` [propan-1-ol] + C=CCn1cc[n+](C)c1.[Br-] the figure was 0.54 ± 0.04.
Next, `c1ccsc1` [thiophene] + C=CC[n+]1ccn(CCCCCCCCCCCC)c1.[Br-]: 0.77 ± 0.05; `ClC(Cl)(Cl)Cl` [tetrachloromethane] + CCCCCCCCCC[n+]1ccn(CCCB(O)O)c1.[Br-]: 0.79 ± 0.05; `Cc1cccc(C)c1` [1,3-dimethylbenzene] + C[n+]1ccn(CCCB(O)O)c1.[Br-]: 48.1 ± 3.3.
